Source: ChEMBL document CHEMBL4507274 (2021)
pIC50: −log10 of the molar value.

What was measured:
[1] = target: Alpha-1D adrenergic receptor (Homo sapiens) (UniProt P25100); settings: Compound concentration 10.0 uM
[2] = test system: Epidermal growth factor receptor (Homo sapiens), P00533 [UNDEFINED MUTATION]; settings: Compound concentration 100.0 nM
[3] = target: RAC-gamma serine/threonine-protein kinase (Homo sapiens) (UniProt Q9Y243); assay: PKBγgamma(h) Upstate kinase activity assay; settings: Compound concentration 10.0 uM
[4] = target: ALK tyrosine kinase receptor (Homo sapiens) (UniProt Q9UM73); assay: ALK (h) Upstate kinase activity assay; settings: Compound concentration 10.0 uM
[5] = target: Ribosomal protein S6 kinase alpha-2 (Homo sapiens) (UniProt Q15349); assay: Rsk3 (h) Upstate kinase activity assay; settings: Compound concentration 10.0 uM
[6] = target: Dual specificity mitogen-activated protein kinase kinase 1 (Homo sapiens) (UniProt Q02750); assay: MEKI (h) Upstate kinase activity assay; settings: Compound concentration 10.0 uM
[7] = test system: Hep 3B2; assay: Liver Hep 3B cell line MDS Pharma Services Proliferation Assay; format: functional, cell-based, Homo sapiens
[8] = test system: HepG2; assay: Liver HepG2 cell line MDS Pharma Services Proliferation Assay; format: functional, cell-based, Homo sapiens
[9] = Lymphoma1-1331-IJ- JAl cell line MDS Pharma Services Proliferation Assay; format: functional, cell-based, Homo sapiens
[10] = organism: Rattus norvegicus; assay: Rsk1 (r) Upstate kinase activity assay; settings: Compound concentration 10.0 uM
[11] = test system: K562; assay: Leukemia K562 cell line MDS Pharma Services Proliferation Assay; format: functional, cell-based, Homo sapiens
[12] = target: Mitogen-activated protein kinase 1 (Homo sapiens) (UniProt P28482); assay: MAPK1 (h) Upstate kinase activity assay; settings: Compound concentration 10.0 uM
[13] = target: Tyrosine-protein kinase Lyn (Mus musculus) (UniProt P25911); assay: Lyn (m) Upstate kinase activity assay; settings: Compound concentration 10.0 uM
[14] = test system: ACHN; assay: Kidney ACHN cell line MDS Pharma Services Proliferation Assay; format: functional, cell-based, Homo sapiens
[15] = target: Tyrosine-protein kinase Fyn (Homo sapiens) (UniProt P06241); assay: Fyn (h) Upstate kinase activity assay; settings: Compound concentration 10.0 uM
[16] = target: Protein kinase C alpha type (Homo sapiens) (UniProt P17252); assay: PKCalpha (h) Upstate kinase activity assay; settings: Compound concentration 10.0 uM
[17] = target: Ribosomal protein S6 kinase alpha-5 (Homo sapiens) (UniProt O75582); assay: MSK1 (h) Upstate kinase activity assay; settings: Compound concentration 10.0 uM
[18] = target: BDNF/NT-3 growth factors receptor (Homo sapiens) (UniProt Q16620); assay: TrkB (h) Upstate kinase activity assay; settings: Compound concentration 10.0 uM
[19] = target: Mitogen-activated protein kinase 11 (Homo sapiens) (UniProt Q15759); assay: SAPK2b (h) Upstate kinase activity assay; settings: Compound concentration 10.0 uM
[20] = target: Tyrosine-protein kinase ABL1 (Mus musculus) (UniProt P00520); assay: Abl (m) Upstate kinase activity assay; settings: Compound concentration 10.0 uM
[21] = target: Fibroblast growth factor receptor 3 (Homo sapiens) (UniProt P22607); assay: FGFR3 (h) Upstate kinase activity assay; settings: Compound concentration 10.0 uM
[22] = target: T1, Serine/threonine-protein kinase 3 (Homo sapiens) (UniProt Q13188); assay: MST2 (h) Upstate kinase activity assay; settings: Compound concentration 10.0 uM
T1 sequence (whole entry): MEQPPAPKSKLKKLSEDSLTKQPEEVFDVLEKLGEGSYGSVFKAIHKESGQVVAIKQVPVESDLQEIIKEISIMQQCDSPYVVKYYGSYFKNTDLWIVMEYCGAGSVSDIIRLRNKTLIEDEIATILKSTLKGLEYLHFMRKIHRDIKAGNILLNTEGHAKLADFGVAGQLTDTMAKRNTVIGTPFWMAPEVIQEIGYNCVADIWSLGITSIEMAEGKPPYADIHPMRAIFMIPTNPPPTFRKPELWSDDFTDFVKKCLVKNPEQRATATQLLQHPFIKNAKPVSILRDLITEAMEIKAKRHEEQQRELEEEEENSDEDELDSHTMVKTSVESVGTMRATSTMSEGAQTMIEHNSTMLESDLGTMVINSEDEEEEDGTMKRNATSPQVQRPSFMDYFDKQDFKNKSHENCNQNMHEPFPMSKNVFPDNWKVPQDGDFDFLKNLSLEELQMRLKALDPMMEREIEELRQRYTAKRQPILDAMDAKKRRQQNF

[23] = target: RAC-alpha serine/threonine-protein kinase (Homo sapiens) (UniProt P31749); assay: PKBalpha (h) Upstate kinase activity assay; settings: Compound concentration 10.0 uM
[24] = target: Cyclin-dependent kinase 3 (Homo sapiens) (UniProt Q00526); assay: CDK3/ cyclin E (h) Upstate kinase activity assay; settings: Compound concentration 10.0 uM
[25] = target: CDK7/Cyclin H/MNAT1 (Homo sapiens) (UniProt P51946+P50613+P51948); assay: CDK7/ cyclin H/ MATI (h) Upstate kinase activity assay; format: protein-complex assay; settings: Compound concentration 10.0 uM
[26] = target: T2, Serine/threonine-protein kinase Nek2 (Homo sapiens) (UniProt P51955); assay: NEK2 (h) Upstate kinase activity assay; settings: Compound concentration 10.0 uM
T2 sequence (whole entry): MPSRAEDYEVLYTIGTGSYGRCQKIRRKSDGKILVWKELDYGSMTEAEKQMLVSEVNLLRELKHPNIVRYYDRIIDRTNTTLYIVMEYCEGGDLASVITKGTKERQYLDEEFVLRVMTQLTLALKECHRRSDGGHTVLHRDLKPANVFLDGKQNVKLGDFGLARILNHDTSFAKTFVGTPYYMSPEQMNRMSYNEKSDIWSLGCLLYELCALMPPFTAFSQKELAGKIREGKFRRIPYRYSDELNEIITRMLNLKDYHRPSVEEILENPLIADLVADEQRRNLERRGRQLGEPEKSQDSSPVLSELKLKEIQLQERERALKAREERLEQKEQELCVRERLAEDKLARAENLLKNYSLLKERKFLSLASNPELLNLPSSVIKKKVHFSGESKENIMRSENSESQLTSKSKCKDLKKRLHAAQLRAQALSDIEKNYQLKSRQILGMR

[27] = Homo sapiens, Lymphoma1-1331-IJ- JAl

Chain of RAC-alpha serine/threonine-protein kinase (Homo sapiens) (P31749 whole entry): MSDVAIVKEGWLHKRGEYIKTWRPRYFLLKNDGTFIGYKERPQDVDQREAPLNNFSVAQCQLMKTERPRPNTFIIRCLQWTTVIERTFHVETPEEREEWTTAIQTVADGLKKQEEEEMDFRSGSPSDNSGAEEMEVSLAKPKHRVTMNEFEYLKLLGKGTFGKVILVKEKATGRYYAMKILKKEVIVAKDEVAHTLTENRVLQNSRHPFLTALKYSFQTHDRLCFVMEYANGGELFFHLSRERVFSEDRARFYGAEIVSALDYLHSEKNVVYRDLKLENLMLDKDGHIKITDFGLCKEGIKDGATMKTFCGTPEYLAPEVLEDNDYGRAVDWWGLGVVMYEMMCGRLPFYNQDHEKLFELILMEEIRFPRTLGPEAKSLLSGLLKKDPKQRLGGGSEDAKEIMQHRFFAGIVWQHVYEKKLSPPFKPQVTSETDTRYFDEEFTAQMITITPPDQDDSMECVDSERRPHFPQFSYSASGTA
Chain of ALK tyrosine kinase receptor (Homo sapiens) (Q9UM73 19-1620 limits assumed): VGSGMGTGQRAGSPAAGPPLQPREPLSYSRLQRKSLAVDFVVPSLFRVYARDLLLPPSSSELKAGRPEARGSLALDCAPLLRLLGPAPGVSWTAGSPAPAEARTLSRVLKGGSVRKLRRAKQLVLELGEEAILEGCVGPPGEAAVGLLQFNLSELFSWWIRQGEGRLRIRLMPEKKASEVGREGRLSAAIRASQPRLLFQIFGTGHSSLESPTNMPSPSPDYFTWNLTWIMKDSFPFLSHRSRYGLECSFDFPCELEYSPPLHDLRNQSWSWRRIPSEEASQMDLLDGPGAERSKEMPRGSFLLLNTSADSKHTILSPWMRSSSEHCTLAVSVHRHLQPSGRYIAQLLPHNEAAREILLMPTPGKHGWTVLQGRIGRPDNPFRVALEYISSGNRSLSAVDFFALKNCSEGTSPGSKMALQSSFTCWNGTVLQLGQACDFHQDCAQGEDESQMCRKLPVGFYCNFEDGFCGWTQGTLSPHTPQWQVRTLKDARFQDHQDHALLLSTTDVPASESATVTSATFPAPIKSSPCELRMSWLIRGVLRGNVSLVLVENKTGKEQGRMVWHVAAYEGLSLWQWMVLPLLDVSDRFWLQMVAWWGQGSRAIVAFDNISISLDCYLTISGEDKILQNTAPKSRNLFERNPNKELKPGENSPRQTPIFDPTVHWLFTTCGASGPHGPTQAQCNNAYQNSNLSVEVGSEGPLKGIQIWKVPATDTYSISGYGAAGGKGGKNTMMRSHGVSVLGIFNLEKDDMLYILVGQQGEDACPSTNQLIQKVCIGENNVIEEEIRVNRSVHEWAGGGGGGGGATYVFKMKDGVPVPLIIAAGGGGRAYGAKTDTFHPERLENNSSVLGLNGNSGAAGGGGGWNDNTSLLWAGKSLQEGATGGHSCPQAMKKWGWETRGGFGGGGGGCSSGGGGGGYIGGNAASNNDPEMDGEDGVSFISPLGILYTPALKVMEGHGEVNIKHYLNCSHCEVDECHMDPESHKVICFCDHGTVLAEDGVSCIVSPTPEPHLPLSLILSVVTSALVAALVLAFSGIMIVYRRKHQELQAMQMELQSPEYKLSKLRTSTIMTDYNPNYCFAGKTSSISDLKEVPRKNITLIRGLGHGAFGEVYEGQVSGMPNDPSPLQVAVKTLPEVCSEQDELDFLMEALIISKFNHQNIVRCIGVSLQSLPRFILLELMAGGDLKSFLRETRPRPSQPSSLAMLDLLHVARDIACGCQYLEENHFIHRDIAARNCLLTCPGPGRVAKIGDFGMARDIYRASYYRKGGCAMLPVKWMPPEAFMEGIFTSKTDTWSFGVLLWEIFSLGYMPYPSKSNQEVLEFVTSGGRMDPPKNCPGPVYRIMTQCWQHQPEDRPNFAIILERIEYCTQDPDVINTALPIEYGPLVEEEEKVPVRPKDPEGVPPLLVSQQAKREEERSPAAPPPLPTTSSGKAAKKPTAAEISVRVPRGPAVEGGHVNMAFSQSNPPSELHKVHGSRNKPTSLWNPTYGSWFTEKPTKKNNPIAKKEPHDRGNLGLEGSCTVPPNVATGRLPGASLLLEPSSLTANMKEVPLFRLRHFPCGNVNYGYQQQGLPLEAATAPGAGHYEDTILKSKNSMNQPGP
Chain of Epidermal growth factor receptor (Homo sapiens), P00533 [UNDEFINED MUTATION] (P00533 whole entry, looked up, change not shown): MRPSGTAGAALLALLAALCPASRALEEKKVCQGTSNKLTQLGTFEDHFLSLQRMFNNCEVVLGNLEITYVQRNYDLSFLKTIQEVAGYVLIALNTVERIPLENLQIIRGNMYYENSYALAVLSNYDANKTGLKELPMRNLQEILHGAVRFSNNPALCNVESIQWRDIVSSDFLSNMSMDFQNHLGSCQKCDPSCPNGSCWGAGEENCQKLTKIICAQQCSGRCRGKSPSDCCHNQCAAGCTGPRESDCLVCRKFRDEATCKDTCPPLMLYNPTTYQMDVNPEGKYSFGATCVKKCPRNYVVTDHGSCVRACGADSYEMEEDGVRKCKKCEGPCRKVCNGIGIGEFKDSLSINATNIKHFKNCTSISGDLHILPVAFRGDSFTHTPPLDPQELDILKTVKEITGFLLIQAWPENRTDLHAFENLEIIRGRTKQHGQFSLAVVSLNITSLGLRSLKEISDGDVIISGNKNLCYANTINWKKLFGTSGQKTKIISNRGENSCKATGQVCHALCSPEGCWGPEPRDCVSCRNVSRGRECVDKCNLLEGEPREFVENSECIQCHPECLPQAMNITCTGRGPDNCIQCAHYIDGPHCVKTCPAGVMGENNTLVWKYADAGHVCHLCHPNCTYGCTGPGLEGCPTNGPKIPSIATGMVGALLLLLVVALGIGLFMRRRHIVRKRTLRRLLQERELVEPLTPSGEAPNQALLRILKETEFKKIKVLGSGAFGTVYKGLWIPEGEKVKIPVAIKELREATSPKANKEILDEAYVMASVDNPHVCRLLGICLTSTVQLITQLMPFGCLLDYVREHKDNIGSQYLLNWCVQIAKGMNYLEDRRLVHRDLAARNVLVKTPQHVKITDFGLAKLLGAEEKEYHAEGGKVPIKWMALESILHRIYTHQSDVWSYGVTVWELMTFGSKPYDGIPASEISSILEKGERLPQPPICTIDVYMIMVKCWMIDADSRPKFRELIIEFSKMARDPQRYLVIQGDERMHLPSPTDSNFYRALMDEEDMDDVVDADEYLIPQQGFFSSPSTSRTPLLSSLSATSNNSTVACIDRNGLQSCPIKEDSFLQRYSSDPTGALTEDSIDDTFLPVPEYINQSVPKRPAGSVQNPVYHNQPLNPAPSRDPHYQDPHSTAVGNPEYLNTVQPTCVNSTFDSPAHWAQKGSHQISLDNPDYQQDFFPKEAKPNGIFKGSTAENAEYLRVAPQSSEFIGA
Chain of BDNF/NT-3 growth factors receptor (Homo sapiens) (Q16620 32-822 limits assumed): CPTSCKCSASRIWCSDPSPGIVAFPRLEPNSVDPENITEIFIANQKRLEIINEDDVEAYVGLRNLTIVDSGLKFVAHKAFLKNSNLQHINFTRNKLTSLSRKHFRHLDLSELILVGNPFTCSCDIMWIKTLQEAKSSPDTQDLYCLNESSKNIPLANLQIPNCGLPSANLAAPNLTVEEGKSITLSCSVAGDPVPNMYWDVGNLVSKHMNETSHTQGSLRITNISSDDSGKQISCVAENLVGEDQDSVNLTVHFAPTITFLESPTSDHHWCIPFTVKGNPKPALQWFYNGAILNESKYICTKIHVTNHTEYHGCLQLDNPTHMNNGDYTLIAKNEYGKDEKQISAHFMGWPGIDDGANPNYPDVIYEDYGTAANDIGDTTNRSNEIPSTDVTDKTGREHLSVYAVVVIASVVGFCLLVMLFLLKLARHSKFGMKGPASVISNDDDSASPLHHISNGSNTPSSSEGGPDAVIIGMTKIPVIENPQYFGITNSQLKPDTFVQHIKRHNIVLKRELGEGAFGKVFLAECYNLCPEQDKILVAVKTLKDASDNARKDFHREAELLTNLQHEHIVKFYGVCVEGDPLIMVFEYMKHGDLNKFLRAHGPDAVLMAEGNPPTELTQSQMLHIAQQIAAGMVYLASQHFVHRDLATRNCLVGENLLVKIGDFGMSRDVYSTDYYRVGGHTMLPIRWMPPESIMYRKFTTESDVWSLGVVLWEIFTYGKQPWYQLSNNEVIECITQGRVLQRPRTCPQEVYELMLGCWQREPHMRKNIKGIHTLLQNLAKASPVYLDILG
Chain of Cyclin-dependent kinase 3 (Homo sapiens) (Q00526 whole entry, looked up): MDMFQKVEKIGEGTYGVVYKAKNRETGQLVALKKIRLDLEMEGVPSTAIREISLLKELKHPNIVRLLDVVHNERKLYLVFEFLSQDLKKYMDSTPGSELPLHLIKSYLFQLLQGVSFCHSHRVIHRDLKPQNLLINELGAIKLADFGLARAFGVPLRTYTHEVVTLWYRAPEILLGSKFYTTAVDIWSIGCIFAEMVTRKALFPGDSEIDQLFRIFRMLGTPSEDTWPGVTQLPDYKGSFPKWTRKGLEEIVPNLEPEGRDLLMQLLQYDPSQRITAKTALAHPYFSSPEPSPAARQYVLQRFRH

## Cn1cc(Cl)c2c(Oc3c(F)cc(Nc4cc(Cl)nc(N)n4)cc3F)ccnc21 [BAY-4900]
[1]
  inhibition: -6.73%
[2]
  residual activity: 77%

## Cc1c[nH]c2nccc(Oc3c(F)cc(Nc4cc(Cl)nc(N)n4)cc3F)c12 [BAY-549]
[3]
  inhibition: 87%
[4]
  inhibition: 78%
[5]
  inhibition: 48%
[6]
  inhibition: 9%
[7]
  Mean % growth (n = 2) for 10.0 µM probe concentration: 11%
[7]; Homo sapiens, Hep3B
  pIC50: 5.89
  TGI: 45 µM
[7]; Homo sapiens, Hep3B, read-out: LC50 (the source's name)
  CC50: > 100 µM
[7]; ± SEM 3 % growth
  Mean % growth (n = 2) for 0.1 µM probe concentration: 82%
[7]; ± SEM 5 % growth
  Mean % growth (n = 2) for 100.0 µM probe concentration: -4%
[7]; ± SEM 6 % growth
  Mean % growth (n = 2) for 1.0 µM probe concentration: 51%
[7]; ± SEM 8 % growth
  Mean % growth (n = 2) for 0.01 µM probe concentration: 90%
[8]; Homo sapiens, HepG2
  pIC50: 5.51
  TGI: 54 µM
[8]; Homo sapiens, HepG2, read-out: LC50 (the source's name)
  CC50: > 100 µM
[8]; ± SEM 2 % growth
  Mean % growth (n = 2) for 1.0 µM probe concentration: 62%
[8]; ± SEM 4 % growth
  Mean % growth (n = 2) for 0.01 µM probe concentration: 101%
  Mean % growth (n = 2) for 10.0 µM probe concentration: 18%
[8]; ± SEM 6 % growth
  Mean % growth (n = 2) for 0.1 µM probe concentration: 95%
  Mean % growth (n = 2) for 100.0 µM probe concentration: -3%
[9]; [27]
  pIC50: < 4.00
  TGI: > 100 µM
[9]; Homo sapiens, Lymphoma1-1331-IJ- JAl, read-out: LC50 (the source's name)
  CC50: > 100 µM
[9]; ± SEM 1 % growth
  Mean % growth (n = 2) for 10.0 µM probe concentration: 98%
[9]; ± SEM 5 % growth
  Mean % growth (n = 2) for 0.1 µM probe concentration: 103%
[9]; ± SEM 6 % growth
  Mean % growth (n = 2) for 1.0 µM probe concentration: 97%
[9]; ± SEM 7 % growth
  Mean % growth (n = 2) for 100.0 µM probe concentration: 80%
[9]; ± SEM 8 % growth
  Mean % growth (n = 2) for 0.01 µM probe concentration: 96%
[10]
  inhibition: 79%
[11]; Homo sapiens, K562
  pIC50: 5.08
  TGI: > 100 µM
[11]; Homo sapiens, K562, read-out: LC50 (the source's name)
  CC50: > 100 µM
[11]; ± SEM 3 % growth
  Mean % growth (n = 2) for 10.0 µM probe concentration: 42%
[11]; ± SEM 4 % growth
  Mean % growth (n = 2) for 1.0 µM probe concentration: 69%
[11]; ± SEM 5 % growth
  Mean % growth (n = 2) for 0.1 µM probe concentration: 92%
[11]; ± SEM 6 % growth
  Mean % growth (n = 2) for 100.0 µM probe concentration: 32%
[11]; ± SEM 7 % growth
  Mean % growth (n = 2) for 0.01 µM probe concentration: 95%
[12]
  inhibition: 1%
[13]
  inhibition: 4%
[14]
  Mean % growth (n = 2) for 10.0 µM probe concentration: 27%
[14]; Homo sapiens, ACHN
  pIC50: 5.44
  TGI: 32 µM
[14]; Homo sapiens, ACHN, read-out: LC50 (the source's name)
  CC50: > 100 µM
[14]; ± SEM 1 % growth
  Mean % growth (n = 2) for 0.01 µM probe concentration: 103%
[14]; ± SEM 2 % growth
  Mean % growth (n = 2) for 0.1 µM probe concentration: 106%
[14]; ± SEM 4 % growth
  Mean % growth (n = 2) for 100.0 µM probe concentration: -25%
[14]; ± SEM 10 % growth
  Mean % growth (n = 2) for 1.0 µM probe concentration: 60%
[15]
  inhibition: 14%
[16]
  inhibition: 6%
[17]
  inhibition: 86%
[18]
  inhibition: 84%
[19]
  inhibition: 1%
[20]
  inhibition: 33%
[21]
  inhibition: 12%
[22]
  inhibition: 59%
[23]
  inhibition: 84%
[24]
  inhibition: 33%
[25]
  inhibition: 57%
[26]
  inhibition: 19%
